The text below walks through data of PubChem BioAssay (NCI).

Several values for one entry are separate records, joined by “and”; a condition that tells them apart may be missing. Equal entries are not always repeated.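 Compound exposure: 48 hours, 5 concentrations, 96-well plates. Here, GI50 denotes the concentration required for 50% inhibition of growth. TGI: concentration producing complete growth inhibition.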

What all share (experiment): DTP human tumour cell line panel, 48 h
For assay [1], the system named is MCF7 breast.
Assay [2] relates to HT29 colon.
Assay [3] concerns CAKI-1 renal.
Assay [4] relates to UACC-257 melanoma.
The test system of assay [5] is OVCAR-8 ovarian.
Assay [6] concerns HCT-15 colon.
Assay [7] concerns SN12C renal.
Assay [8] deals with SF-539 CNS.
Assay [9] deals with IGROV1 ovarian.
The test system of assay [10] is HOP-62 NSCLC.

By GI50 is commonly meant the concentration at which growth is held to half of that of the control. In general, TGI refers to the concentration giving total growth inhibition. Low values mean more potent growth arrest, high ones less potent growth arrest. As to `Cc1ncc(C(=O)Nc2ccc(CN3CCN(C)CC3)c(C(F)(F)F)c2)cc1C#Cc1cnc(NC2CC2)c2ncccc12`, the GI50 in assay [1] is 0.605 µM; in assay [2] it was 0.474 µM; in [3], 1.66 µM; in assay [4], 0.719 µM; in assay [5], 0.708 µM; in assay [6], 0.566 µM. The GI50 was 1.67 µM in assay [7], 0.612 µM in assay [8], 0.709 µM in assay [9] and 1.41 µM in [10]. For the same compound, the TGI came out at 1.18 µM in [1]; 1.31 µM in assay [2]; 3.47 µM in assay [3]; 1.59 µM in assay [4]; 1.54 µM in assay [5]; 1.1 µM in [6]. In addition, the TGI in [7] amounted to 3.32 µM; in [8] it was 1.11 µM; in assay [9], 1.51 µM; in [10], 3.06 µM.

With `Cc1cc2c(Br)cc(Br)c(O)c2nc1C(=O)c1ccccc1`, the TGI was more than 100 µM in [1]; more than 79.1 µM in assay [2]; more than 100 µM in assay [3]; more than 65.7 µM in assay [4]; more than 100 µM in assay [5]; more than 45.5 µM in [6]. Besides, the TGI is more than 100 µM in assay [7], 97 µM in assay [8], more than 100 µM in assay [9] and more than 31.6 µM in [10].

Turning to `CCCCCCCCCCN=C(c1ccc(N(C)C)cc1)c1ccc(N(C)C)cc1`, the GI50 in assay [1] is 0.356 µM; in assay [2], 0.351 µM; in [3], 1.43 µM; in [4], 16.5 µM; in assay [5], 2.09 µM; in assay [6] it was 0.365 µM. The GI50 in assay [7] is 0.83 µM; in [8] it was 0.832 µM; in assay [9], 0.917 µM; in assay [10], 1.06 µM. Also, the TGI was more than 100 µM in assay [1]; 18.5 µM in [2]; 64.3 µM in assay [3]; 66.2 µM in assay [4]; more than 59.5 µM in [5]; more than 100 µM in assay [6]. Also, the TGI was 53.4 µM in assay [7], 5.47 µM in [8], more than 100 µM in assay [9] and 31.8 µM in assay [10].

Consider `C=C1CC2(OC1=O)C(=O)N(CCCN1C(=O)C3(CC(=C)C(=O)O3)c3ccccc31)c1ccccc12` (centres undefined), for which the GI50 in assay [1] is 1.4 µM; in [2] it was 1.85 µM; in assay [3] it was 1.17 µM; in assay [4], 1.66 µM; in assay [5], 1.35 µM; in [6], 0.956 µM. Moreover, the GI50 in [7] is 2.29 µM; in assay [8] it was 1.76 µM; in assay [9], 1.32 µM; in assay [10] it was 7.34 µM. The TGI amounted to 4.45 µM in assay [1]; 4.91 µM in assay [2]; 2.39 µM in assay [3]; 3.95 µM in assay [4]; 5.49 µM in [5]; 2.55 µM in assay [6]. Besides, the TGI in assay [7] is 6.26 µM; in assay [8], 3.43 µM; in [9], 2.68 µM; in [10], 21.8 µM.

Turning to `CCN(CC)CCNC(=O)c1c(C)[nH]c(/C=C2\C(=O)Nc3ccc(F)cc32)c1C`, the GI50 in assay [1] is 1.93 µM and 2.23 µM and 2.05 µM; in [2], 1.07 µM and 1.3 µM and 1.54 µM; in assay [3], 1.07 µM and 1.04 µM and 0.794 µM; in [4], > 10 µM and 2.49 µM and 3.24 µM; in assay [5], 9.05 µM and 2.81 µM and 6.09 µM; in [6], 1.22 µM and 1.23 µM and 1.13 µM. In addition, the GI50 was 1.95 µM and 1.24 µM and 2.23 µM in assay [7]; 1.38 µM and 2.36 µM and 1.21 µM in [8]; 1.48 µM and 2.63 µM and 2.05 µM in assay [9]; 5.27 µM and 2.42 µM and 2.64 µM in [10]. Besides, the TGI in assay [1] was > 10 µM and 4.88 µM and 11.9 µM; in [2], 5.21 µM and 4.99 µM and 3.69 µM; in assay [3] it was > 10 µM and 20 µM and 6.77 µM; in assay [4] it was > 10 µM and 5.21 µM and 8.69 µM; in assay [5], > 10 µM and 6.95 µM and 23.1 µM; in assay [6], > 10 µM and 20 µM and 13.3 µM. The TGI was > 10 µM and 20 µM and 16.2 µM in assay [7]; 6.7 µM and 5.41 µM and 2.72 µM in assay [8]; > 10 µM and 20 µM and 15.9 µM in assay [9]; > 10 µM and 5.94 µM and 15.3 µM in assay [10].

As to `CCOC1Oc2ccccc2-c2oc(=O)c(Sc3ccc(C)cc3)cc21` (centres undefined), the GI50 in [1] was 19.8 µM; in assay [2], 32 µM; in assay [3], 35.4 µM; in assay [4], 11.8 µM; in [5] it was 51 µM; in assay [6] it was 27.6 µM. The GI50 in assay [7] is 29.5 µM; in assay [8] it was 62.3 µM; in assay [9] it was 26 µM; in [10], 58.5 µM. Further, the concentration for total growth inhibition (TGI) is more than 100 µM in [1]; more than 100 µM in assay [2]; more than 100 µM in assay [3]; 45.8 µM in assay [4]; more than 100 µM in assay [5]; more than 100 µM in assay [6]. The TGI in assay [7], in assay [8], in assay [9] and in [10] was more than 100 µM in each case.

Consider `Cc1nc(Nc2n[nH]c3c2CN(C(=O)N[C@H](CN(C)C)c2ccccc2)C3(C)C)c2sccc2n1`, for which the GI50 is 0.00523 µM and < 0.01 µM in assay [1]; 0.0238 µM and 0.0313 µM in [2]; less than 0.0106 µM in assay [4]; 0.0839 µM and 0.306 µM in assay [5]; 0.687 µM and 1.26 µM in [6]; 0.0193 µM and < 0.0176 µM in assay [7]. Further, the concentration for 50% growth inhibition (GI50) is 0.382 µM and 0.149 µM in assay [8]; 0.0127 µM and 0.0247 µM in assay [9]; 0.0724 µM and 0.129 µM in [10]. The TGI in assay [1] is > 5.5 µM and 6.46 µM; in assay [2], 2.75 µM and 5.59 µM; in [3], > 5.08 µM and 51.9 µM; in assay [4] it was 1.27 µM and 4.34 µM; in [5], > 10 µM and 15.6 µM; in assay [6] it was > 10 µM and 68.5 µM. Also, the TGI is > 4.66 µM and 3.84 µM in assay [7]; 3.68 µM and 2.98 µM in assay [8]; > 3.53 µM and 16.7 µM in assay [9]; 5.12 µM and 7.06 µM in [10].

With `COc1ccccc1-c1cc(=O)c2ccc(C)nc2[nH]1`, the total growth inhibition concentration (TGI) in [1], in assay [2], in [3], in assay [4], in assay [5] and in assay [6] was more than 100 µM throughout. Further, the TGI in assay [7], in assay [8], in assay [9] and in assay [10] was more than 100 µM in each case.

On to `O=C(/C=C/c1ccccc1)CC(c1ccccc1)N1CCOCC1` (centres undefined), for which the GI50 in assay [1] is 4.68 µM; in assay [2], 3.7 µM; in [3], 3.38 µM; in [4], 5.63 µM; in assay [5] it was 4.57 µM; in [6] it was 1.96 µM. Also, the GI50 is 4.25 µM in assay [7], 2.24 µM in [8], 2.14 µM in assay [9] and 3.25 µM in assay [10]. Besides, the TGI in [1] came to 80.3 µM; in assay [2], 16.7 µM; in assay [3], 12.9 µM; in assay [4], 18.8 µM; in assay [5], 17.3 µM; in assay [6], 5.52 µM. Besides, the TGI turned out to be 14.8 µM in assay [7], 5.98 µM in assay [8], 5.78 µM in assay [9] and 11.9 µM in assay [10].

Regarding `C[C@H](Cn1ncnn1)Nc1ncc2cc(Oc3ccc(F)cc3F)c(=O)n(C)c2n1`, the GI50 in assay [1], in assay [2], in assay [3], in assay [4], in assay [5] and in assay [6] was more than 25 µM throughout. Moreover, the GI50 in assay [7], in assay [8], in [9] and in assay [10] was more than 25 µM each time. Also, the TGI in assay [1], in assay [2], in [3], in assay [4], in assay [5] and in assay [6] was more than 25 µM each time. Moreover, the total growth inhibition concentration (TGI) in [7], in assay [8], in assay [9] and in assay [10] was more than 25 µM each time.

For `CN(C)Cc1c[nH]c2c(NCCN)c3c(c(NCCN)c12)C(=O)c1ccccc1C3=O`, the GI50 was 19 µM in [1]; 3.65 µM in assay [2]; 20.8 µM in assay [3]; 6.18 µM in [4]; 0.726 µM in [5]; 6.97 µM in assay [6]. For the same compound, the GI50 is 0.372 µM in [7], 2.83 µM in [8], 2.1 µM in assay [9] and 1.31 µM in assay [10]. Moreover, the total growth inhibition concentration (TGI) in assay [1] is 94.1 µM; in [2] it was 26.5 µM; in assay [3] it was 41.7 µM; in [4], more than 23.8 µM; in assay [5], 11 µM; in [6] it was 20 µM. In addition, the TGI in [7] amounted to 1.88 µM; in [8], 7.47 µM; in [9] it was 10.5 µM; in [10] it was 6.39 µM.

On to `C=CCSc1nc2ccccc2c(=O)n1Cc1ccco1`, for which the TGI in assay [1], in assay [2], in assay [3], in assay [4], in [5] and in [6] was more than 100 µM each time. The total growth inhibition concentration (TGI) in [7], in assay [8], in [9] and in assay [10] was more than 100 µM each time.

Take `OB1OCc2cc(/C=C/c3cccc(C(F)(F)F)c3)ccc21`: the GI50 was 0.452 µM in assay [1]; 1.44 µM in assay [2]; 0.349 µM in assay [3]; 4.31 µM in assay [4]; 0.918 µM in assay [5]; 1.33 µM in [6]. Moreover, the GI50 in [7] is 1.46 µM; in assay [8], 0.405 µM; in assay [9], 1.88 µM; in [10], 0.483 µM. In addition, the TGI in assay [1] was 44.4 µM; in assay [2], more than 100 µM; in assay [3], 10.2 µM; in [4] it was more than 100 µM; in assay [5], 24.2 µM; in assay [6] it was more than 100 µM. In addition, the TGI is more than 100 µM in assay [7], 11.1 µM in [8], 60.2 µM in assay [9] and 17.4 µM in [10].
